The record followed here is patent publication US20230032101A1, “FIVE-MEMBERED HETEROCYCLIC OXOCARBOXYLIC ACID COMPOUND AND MEDICAL USE THEREOF” (Shanghai Institute of Materia Medica, Chinese Academy of …, priority 2019, published 2023).

Format in all cases: cell-based
The test system of assay [1] is type I interferon pathway in murine Raw-lucia cells. Nature of the assay: Activation of type I interferon pathway in murine Raw-lucia cells (QUANTI-Luc luminescence). Conditions: Mus musculus, 24 h, Compound Luminescence/Control Luminescence, ≥2 times considered valid, read-out: Fold Change. The method, then: Raw-lucia cells were counted, the cell concentration was adjusted to 5×10^5/mL, and 180 μL of cells were added to each well for incubation. 20 μL of compound diluted with physiological saline was added to each well of a 96-well cell culture plate after cells were adhered, the concentration of the compound was 50 μM/100 μM.
After 24 hours, 20 μL of the culture medium was took out from each well to a new 96-well plate with bottom-transmitting, 50 μL of the luciferase detection reagent QUANTI-Luc™ was added, and the […] was measured immediately (in the dark). The experiment was repeated twice.

Assay [2] concerns type I interferon pathway (ISG) in human THP1-Blue-ISG cells. Nature of the assay: Activation of type I interferon pathway (ISG) in human THP1-Blue-ISG cells (Quanti-Blue, OD650). Conditions: 24 h, Compound OD650/Control OD650, ≥2 times considered valid, read-out: Fold Change.
The test system is the same in assay [3]. Described as above. The note with it: 24 h, Compound OD650/Control OD650, ≥2 times considered valid; for fold induction at 10 µM / fold induction at 50 µM: Homo sapiens, THP1-Blue ISG, read-out: Fold Change. The method, then: 20 μL of compound diluted with physiological saline was added to each well of a 96-well cell culture plate, the positive control compound was ADU-S100, and the solvent control group was added with 20 μL of physiological saline containing DMSO. THP1-Blue-ISG cells were counted, the cell concentration was adjusted to 5×10^5/mL, and 180 μL of cells were added to each well for incubation. Therefore, the final volume of each test well was 200 μL, the content of DMSO was 0.1%/0.5%, the test concentration of the compound was 10/50 μM, and the positive control compound was ADU-S100 at a final concentration of 10 μM, and incubated for 24 hours for detection.
After 24 hours, 20 μL of the culture solution was took out from each well to a new 96-well plate, 180 μL of chromogenic solution Quanti-Blue was added, placed in a 37° C. incubator, and the OD650 value was measured after 0.5-2 hours. The experiment was repeated twice.
The experimental results were used to evaluate the ability of compounds to induce the secretion of type I interferon pathway (ISG) by the Fold Change, which was calculated as follows:
Fold Change=Compound OD650/Control OD650, wherein the results of ≥2 times were considered valid.

In the case of `O=C(O)CCC(=O)c1scc(-c2c[nH]c3ccccc23)c1F` [I′-56, 4-(3-fluoro-4-(1H-indol-3-yl)thiophen-2-yl)-4-oxobutyric Acid], the fold induction at 50 µM in assay [1] was 12.9. Further, the fold induction at 30 µM in assay [2] is 14.9.
For `COC(=O)CC(=O)c1cc(-c2coc3ccccc23)cs1` [Example I-26, methyl 3-(4-(benzofuran-3-yl)thiophen-2-yl)-3-oxopropanoate], the fold induction at 20 µM in assay [2] (20 μM) is 14.6.
On to `O=C(O)CC(=O)c1cc(-c2c[nH]c3ccccc23)cs1` [Example I-1, 3-(4-(1H-indol-3-yl)thiophen-2-yl)-3-oxopropionic Acid], for which, in assay [3] (10 μM), the fold induction at 10 µM turned out to be 14.3.
For the molecule `O=C(O)CCC(=O)c1cc(-c2coc3c(F)cccc23)cs1` [I′-55, 4-(4-(7-fluorobenzofuran-3-yl)thiophen-2-yl)-4-oxobutyric Acid], the fold induction at 50 µM in assay [1] came to 12.2. Moreover, in assay [2], the fold induction at 30 µM stood at 16.
On to `COC(=O)CCC(=O)c1cc(-c2c[nH]c3c(F)cccc23)cs1` [I′-50, Methyl 4-(4-(7-fluoro-1H-indol-3-yl)thiophen-2-yl)-4-oxobutyrate], for which the fold induction at 10 µM in assay [3] (10 μM) turned out to be 68.1.
Consider `O=C(O)CCC(=O)c1cc(-c2c[nH]c3cc(F)ccc23)cs1` [I′-46, 4-(4-(6-fluoro-1H-indol-3-yl)thiophen-2-yl)-4-oxobutyric Acid], for which the fold induction at 10 µM in assay [3] (10 μM) was found to be 11.3. Besides, the fold induction at 100 µM in assay [1] turned out to be 31.4.
On to `O=C(O)CCC(=O)c1cc(-c2c[nH]c3cc(F)ccc23)co1` [I′-38, 4-(4-(6-fluoro-1H-indol-3-yl)furan-2-yl)-4-oxobutyric Acid], for which, in assay [3] (10 μM), the fold induction at 10 µM turned out to be 7.15. Moreover, the fold induction at 50 µM in assay [1] was 7.1.
`CC(CC(=O)c1cc(-c2coc3ccccc23)co1)C(=O)O` (centres unmarked) [I′-37, 4-(4-(benzofuran-3-yl)furan-2-yl)-2-methyl-4-oxobutyric Acid]: the fold induction at 50 µM in assay [1] is 3.79.
Turning to `O=C(O)CC(=O)c1cc(-c2c[nH]c3c(F)cccc23)cs1` [Example I-3, 3-(4-(7-fluoro-1H-indol-3-yl)thiophen-2-yl)-3-oxopropionic acid], in assay [3] (10 μM), the fold induction at 10 µM turned out to be 9.82.
Consider `COC(=O)CC(=O)c1cc(-c2c[nH]c3ccc(OC)cc23)cs1` [Example I-42, methyl 3-(4-(5-methoxy-1H-indol-3-yl)thiophen-2-yl)-3-oxopropanoate], for which the fold induction at 10 µM in assay [3] (10 μM) came out at 61.8.
As to `COC(=O)CC(=O)c1cc(-c2c[nH]c3c(F)cccc23)co1` [Example I-38, methyl 3-(4-(7-fluoro-1H-indol-3-yl)furan-2-yl)-3-oxopropanoate], the fold induction at 10 µM in assay [3] (10 μM) worked out at 77.2.
Turning to `COC(=O)CC(=O)c1cc(-c2ccc(OC)c(OC)c2)co1` [Example I-34, methyl 3-(4-(3,4-dimethoxyphenyl)furan-2-yl)-3-oxopropanoate], the fold induction at 30 µM in assay [2] turned out to be 23.7.
Take `O=C(O)CCC(=O)c1cc(-c2coc3ccccc23)co1` [I′-17, 4-(4-(benzofuran-3-yl)furan-2-yl)-4-oxobutyric acid]: in assay [1], the fold induction at 50 µM turned out to be 12.5. Further, in assay [2] (25 μM), the fold induction at 25 µM was 21.6.
`O=C(O)CC(=O)c1cc(-c2c[nH]c3cc(F)ccc23)cs1` [Example I-2, 3-(4-(6-fluoro-1H-indol-3-yl)thiophen-2-yl)-3-oxopropionic acid]: the fold induction at 10 µM in assay [3] (10 μM) was determined as 11.
For `COC(=O)CC(=O)c1cc(-c2c[nH]c3c(F)cccc23)cs1` [Example I-18, methyl 3-(4-(7-fluoro-1H-indol-3-yl)thiophen-2-yl)-3-oxopropanoate], the fold induction at 10 µM in assay [3] (10 μM) is 9.8.
As for `O=C(O)CCC(=O)c1cc(-c2c[nH]c3ccccc23)co1` [I′-30, 4-(4-(1H-indol-3-yl)furan-2-yl)-4-oxobutyric Acid], the fold induction at 100 µM in assay [1] came to 8.13. Further, the fold induction at 12.5 µM in assay [2] (12.5 μM) worked out at 22.7.
In the case of `O=C(O)CCC(=O)c1cc(-c2c[nH]c3c(F)cccc23)cs1` [I′-49, 4-(4-(7-fluoro-1H-indol-3-yl)thiophen-2-yl)-4-oxobutyric Acid], in assay [3] (10 μM), the fold induction at 10 µM amounted to 10.3. In addition, in assay [1], the fold induction at 50 µM was found to be 36.2.
Consider `O=C(O)CCCC(=O)c1cc(-c2c[nH]c3c(F)cccc23)cs1` [Example I-14, 5-(4-(7-fluoro-1H-indol-3-yl)thiophen-2-yl)-5-oxopentanoic Acid], for which the fold induction at 50 µM in assay [3] turned out to be 1.96.
Turning to `COC(=O)CC(=O)c1cc(-c2c[nH]c3ccc(F)cc23)cs1` [Example I-19, methyl 3-(4-(5-fluoro-1H-indol-3-yl)thiophen-2-yl)-3-oxopropionate], the fold induction at 10 µM in assay [3] (10 μM) came to 10.
For `COC(=O)CC(=O)c1cc(-c2coc3ccccc23)co1` [Example I-31, methyl 3-(4-(benzofuran-3-yl)furan-2-yl)-3-oxopropanoate], the fold induction at 30 µM in assay [2] was 43.2.
For `O=C(O)CCC(=O)c1cc(-c2cccc3sccc23)cs1` [I′-10, 4-(4-(benzo[b]thiophen-4-yl)thiophen-2-yl)-4-oxobutyric Acid], the fold induction at 50 µM in assay [3] turned out to be 15.1.
In the case of `COC(=O)CC(=O)c1cc(-c2c[nH]c3cc(F)ccc23)co1` [Example I-37, methyl 3-(4-(6-fluoro-1H-indol-3-yl)furan-2-yl)-3-oxopropanoate], the fold induction at 10 µM in assay [3] (10 μM) was determined as 71.5.
Turning to `O=C(O)CCC(=O)c1cc(-c2csc3ccccc23)cs1` [I′-4, 4-(4-(benzo[b]thiophen-3-yl)thiophen-2-yl)-4-oxobutyric Acid], the fold induction at 50 µM in assay [3] amounted to 18.4.
Turning to `COC(=O)CC(=O)c1cc(-c2c[nH]c3cc(F)ccc23)cs1` [Example I-17, methyl 3-(4-(6-fluoro-1H-indol-3-yl)thiophen-2-yl)-3-oxopropionate], the fold induction at 10 µM in assay [3] (10 μM) worked out at 11.
Take `Nc1ncnc2c1ncn2[C@@H]1O[C@@H]2COP(=O)([S-])O[C@@H]3[C@H](O)[C@@H](COP([O-])(=S)O[C@H]2[C@H]1O)O[C@H]3n1cnc2c(N)ncnc21.[Na+].[Na+]` (some centres unmarked) [ADU-S100, reference compound]: the “Fold Change” value in assay [3] (10 μM) is given as 12.45@10 μM.
As to `O=C(O)CCC(=O)c1cc(-c2c[nH]c3c(F)cccc23)co1` [I′-58, 4-(4-(7-fluoro-1H-indol-3-yl)furan-2-yl)-4-oxobutyric Acid], the fold induction at 10 µM in assay [3] (10 μM) was determined as 4.14. The fold induction at 100 µM in assay [1] was found to be 14.2.
`COC(=O)CC(=O)c1cc(-c2c[nH]c3ccccc23)cs1` [Example I-16, methyl 3-(4-(1H-indol-3-yl)thiophen-2-yl)-3-oxopropionate]: in assay [3] (10 μM), the fold induction at 10 µM turned out to be 14.3.
Still for that read-out and setting: then `COC(=O)CC(=O)c1cc(-c2c[nH]c3ccc(F)cc23)co1` [Example I-40, methyl 3-(4-(5-fluoro-1H-indol-3-yl)furan-2-yl)-3-oxopropanoate], with 53.7.
For `O=C(O)CCC(=O)c1cc(-c2coc3ccc(F)cc23)cs1` [I′-54, 4-(4-(5-fluorobenzofuran-3-yl)thiophen-2-yl)-4-oxobutyric Acid], the fold induction at 100 µM in assay [1] is 4.5.
For `COC(=O)CC(=O)c1cc(-c2ccc3ccoc3c2)co1` [Example I-36, methyl 3-(4-(benzofuran-6-yl)furan-2-yl)-3-oxopropanoate], the fold induction at 30 µM in assay [2] is 29.7.
On to `COC(=O)CC(=O)c1cc(-c2c[nH]c3ccc(OC)cc23)co1` [Example I-43, methyl 3-(4-(5-methoxy-1H-indol-3-yl)furan-2-yl)-3-oxopropanoate], for which, in assay [3] (10 μM), the fold induction at 10 µM is 23.3.
For `O=C(O)CCC(=O)c1cc(-c2c[nH]c3cccc(F)c23)cs1` [I′-51, 4-(4-(4-fluoro-1H-indol-3-yl)thiophen-2-yl)-4-oxobutyric Acid], the fold induction at 10 µM in assay [3] (10 μM) stood at 5.27. The fold induction at 100 µM in assay [1] was found to be 9.75.
Regarding `O=C(O)CC(=O)c1cc(-c2c[nH]c3ccc(F)cc23)cs1` [Example I-4, 3-(4-(5-fluoro-1H-indol-3-yl)thiophen-2-yl)-3-oxopropionic acid], the fold induction at 10 µM in assay [3] (10 μM) was 9.95.
Consider `O=C(O)CCCC(=O)c1cc(-c2c[nH]c3ccccc23)cs1` [Example I-13, 5-(4-(1H-indol-3-yl)thiophen-2-yl)-5-oxopentanoic Acid], for which, in assay [2], the fold induction at 30 µM was found to be 12.6.
Regarding `COC(=O)CC(=O)c1cc(-c2c[nH]c3cccc(F)c23)co1` [Example I-39, methyl 3-(4-(4-fluoro-1H-indol-3-yl)furan-2-yl)-3-oxopropanoate], in assay [3] (10 μM), the fold induction at 10 µM worked out at 59.5.
